Source: patent publication US5147888A, “N-terminal indolyy indolylalkylaminodiol β-amino acid derivatives” (G. D. Searle & Co., priority 1991, dated 1992)
Square brackets hold non-standard residues; d marks the D form. Peptide text beside a SMILES is read from it. * marks the point of attachment. Sta = CC(C)C[C@H](N)[C@@H](O)CC(=O)O; Isovaleryl = CC(C)CC(=O)*

Assays:
[1] = molecular target: T1, human renin (Homo sapiens, UniProt P00797); assay: in vitro human renin inhibition assay (angiotensin I determined by radioimmunoassay); format: biochemical; settings: pH 7.4, 37° C., two hours; for inhibition at 1 µM: 10^-6 M
T1 construct: purchased National Institute for Biological Standards, London
T1 sequence (P00797 67-406): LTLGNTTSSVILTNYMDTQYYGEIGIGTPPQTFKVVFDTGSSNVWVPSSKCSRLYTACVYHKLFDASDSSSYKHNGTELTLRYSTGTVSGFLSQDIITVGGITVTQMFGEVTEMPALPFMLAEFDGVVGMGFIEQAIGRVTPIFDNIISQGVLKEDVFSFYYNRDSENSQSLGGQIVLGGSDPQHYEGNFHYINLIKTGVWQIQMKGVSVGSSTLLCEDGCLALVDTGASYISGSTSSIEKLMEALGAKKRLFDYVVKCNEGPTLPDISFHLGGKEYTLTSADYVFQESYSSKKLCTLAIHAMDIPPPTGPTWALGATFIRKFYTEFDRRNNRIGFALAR
Protocol: Compounds of Formula I were evaluated as inhibitors of human renin in an in vitro assay. This human renin inhibition test has been previously described in detail [Papaioannou et al., Clinical and Experimental Hypertension, A7(9), 1243-1257 (1985)]. Human renin was obtained from the National Institute for Biologivcal Standards, London. An incubation mixture was prepared containing in a total volume of 0.25 mL 100 mM Tris-acetate buffer at pH 7.4, 25×10^-6 Goldblatt units of renin, 0.05 mL of plasma from human volunteers taking oral contraceptives,6.0 mM sodium EDTA, 2.4 mM phenylmethyl sulfonyl fluoride, 1.5 mM 8-hydroxyquinoline, 0.4 mg/mL BSA, and 0.024 mg/mL neomycin sulfate. This mixture was incubated for two hours at 37° C. in the presence or absence of renin inhibitors. The produced angiotensin I was determined by radioimmunoassay (New England Nuclear kit). Test compounds to be assayed were dissolved in DMSO and diluted with 100 mM Tris-acetate buffer at pH 7.4 containing 0.5% BSA to the appropriate Concentration. The final concentration of organic solvent in the reaction mixture was less than 1%. Control incubations at 37° C. were used to correct for effects of organic solvent on renin activity.

[2] = tested on: hog renin; settings: after the injection of hog renin into nephrectomized rats; cited from earlier work
[3] = tested on: pepsin; settings: cited from earlier work
[4] = tested on: cathepsin D; settings: cited from earlier work
[5] = tested on: renin; settings: cited from earlier work

CC(C)C[C@H](O)[C@H](O)[C@H](CC1CCCCC1)NC(=O)[C@H](C)CN(C)C(=O)CCCc1ccccc1 (relative stereo) [Example 10, N-[3-[[1S,1R*-(cyclohexylmethyl)-2S*,3R*-dihydroxy-5-methylhexyl]amino-]-2S*-methyl-3-oxopropyl]-N-methyl-benzenebutanamide]
IC50 [1]: 115 nM

CC(C)C[C@H](O)[C@H](O)[C@H](CC1CCCCC1)NC(=O)[C@H](C)CNC(=O)c1coc2ccccc2c1=O [Example 25, N-[3-[[1S,1R*-(cyclohexylmethyl)-2S*,3R*-dihydroxy-5-methyhexyl]amino]-2S*- methyl-3-oxopropyl]-4-oxo-4H-1-benzopyran-3-carboxamide]
IC50 [1]: 1100 nM

CC(C)C[C@H](O)[C@H](O)[C@H](CC1CCCCC1)NC(=O)[C@H](C)CNC(=O)c1cc2cccc(Cl)c2o1 [Example 23]
IC50 [1]: 1800 nM

CC(C)C[C@H](O)[C@H](O)[C@H](CC1CCCCC1)NC(=O)[C@H](C)CNC(=O)CCc1c[nH]c2ccccc12 [Example 22, N-[3-[[1S,1R*-(cyclohexylmethyl)-2S*,3R*-dihydroxy-5-methylhexyl]amino]-2S*-methyl-3-oxopropyl]-1H-indole3-propanamide]
IC50 [1]: 30 nM

CCn1cc(C(=O)NC[C@@H](C)C(=O)N[C@@H](CC2CCCCC2)[C@@H](O)[C@@H](O)CC(C)C)c(=O)c2ccc(C)nc21 [Example 16, N-[3-[[1S,1R*-(cyclohexylmethyl)-2S*,3R*-dihydroxy-5-methylhexylamino]amino]-2S*-methyl-3-oxopropyl-nalidixylamide]
IC50 [1]: 450 nM

COc1ccc(CCC(=O)NC[C@@H](C)C(=O)N[C@@H](CC2CCCCC2)[C@@H](O)[C@@H](O)CC(C)C)cc1 [Example 13, N-[3-[[1S,1R*-(cyclohexylmethyl)-2S*,3R*-dihydroxy-5-methylhexyl]amino]-2S*-methyl-3-oxopropyl]-4-methoxybenzenepropanamide]
inhibition at 0.5 µM ([1]; 5 × 10^-7 M): 30%

CC(C)C[C@H](O)[C@H](O)[C@H](CC1CCCCC1)NC(=O)[C@H](C)CNC(=O)c1cc2ccccc2[nH]1 (relative stereo) [Example 7, N-[3-[[1S,1R*-(cyclohexylmethyl)-2S*,3R*-dihydroxy-5-methylhexyl]amino]-2S*-methyl-3-oxopropyl]-1H-indole-2-carboxamide]
IC50 [1]: 26 nM

CC(C)C[C@H](O)[C@H](O)[C@H](CC1CCCCC1)NC(=O)[C@H](C)CN(C)C(=O)CCCC1CCCCC1 (relative stereo) [Example 12, N-[3-[[1S,1R*-(cyclohexylmethyl)-2S*,3R*-dihydroxy-5-methylhexyl]amino]-2S*-methyl-3-oxopropyl]-N-methyl-cyclohexanebutanamide]
inhibition at 1 µM [1]: 23%

CC(C)C[C@H](O)[C@H](O)[C@H](CC1CCCCC1)NC(=O)[C@H](C)CNC(=O)Cc1c[nH]c2ccccc12 [Example 21, N-[3-[[1S,1R*-(cyclohexylmethyl)-2S*,3R*-dihydroxy-5-methylhexyl]amino]-2S*-methyl-3-oxopropyl]-1H-indole3-acetamide]
inhibition at 1 µM [1]: 30%

CC(C)C[C@H](O)[C@H](O)[C@H](CC1CCCCC1)NC(=O)[C@H](C)CNC(=O)CCCc1ccccc1 (relative stereo) [Example 6, N-[3-[[1S,1R*-(cyclohexylmethyl)-2S*,3R*-dihydroxy-5-methylhexyl]amino]-2S*-methyl-3-oxopropyl]benzenebutanamide]
IC50 [1]: 125 nM

CC(C)C[C@H](O)[C@H](O)[C@H](CC1CCCCC1)NC(=O)[C@H](C)CNC(=O)c1cc(=O)c2ccccc2o1 [Example 26, N-[3-[[1S,1R*-(cyclohexylmethyl)-2S*,3R*-dihydroxy-5-methylhexyl]amino]-2S*-methyl-3-oxopropyl]-4-oxo-4H-1-benzopyran-2-carboxamide]
IC50 [1]: 520 nM

COc1cccc2cc(C(=O)NC[C@@H](C)C(=O)N[C@@H](CC3CCCCC3)[C@@H](O)[C@@H](O)CC(C)C)oc12 [Example 24, N-[3-[[1S,1R*-(cyclohexylmethyl)-2S*,3R*-dihydroxy-5-methylhexyl]amino]-2S*-methyl-3-oxopropyl]-7-methoxy-benzofuran-2-carboxamide]
IC50 [1]: 3000 nM

CC(C)C[C@H](O)[C@H](O)[C@H](CC1CCCCC1)NC(=O)[C@H](C)CNC(=O)CCCC1CCCCC1 (relative stereo) [Example 11, N-[3-[[1S,1R*-(cyclohexylmethyl)-2S*,3R*-dihydroxy-5-methylhexyl]amino]-2S*-methyl-3-oxopropyl]cyclohexane-butanamide]
IC50 [1]: 180 nM

CC(C)C[C@H](O)[C@H](O)[C@H](CC1CCCCC1)NC(=O)[C@H](C)CNC(=O)c1c[nH]c2ccccc12 [Example 20, N-[3-[[1S,1R*-(cyclohexylmethyl)-2S*,3R*-dihydroxy-5-methylhexyl]amino]-2S*-methyl-3-oxopropyl]-1H-indole3-carboxamide]
inhibition at 10 µM ([1]; 10^-5 M): 27%

CC(C)CC(=O)N[C@H](C(=O)N[C@H](C(=O)N[C@@H](CC(C)C)[C@@H](O)CC(=O)N[C@@H](C)C(=O)N[C@@H](CC(C)C)[C@@H](O)CC(=O)O)C(C)C)C(C)C [pepstatin] (Isovaleryl-VV[Sta]A[Sta]-OH)
blood pressure reduction in vivo [2]: reduce blood pressure
inhibitor of aspartyl proteases: pepsin [3]: inhibitor
inhibitor of aspartyl proteases: cathepsin D [4]: inhibitor
inhibitor of aspartyl proteases: renin [5]: inhibitor
